According to PMC5623054, “Cloning and Functional Characterization of Octβ2-Receptor and Tyr1-Receptor in the Chagas Disease Vector, Rhodnius prolixus” (Frontiers in Physiology, 2017):
Blank lines part the entries; values can stand above or below the compound they belong to.

Columns and labels:
Assay type in all cases: cell-based
RhoprTyr1-R [1] = target: T1, RhoprTyr1-R (Rhodnius prolixus, UniProt A0A291L8I9); test: aequorin bioluminescence Ca2+ assay in transfected HEK293/CNG cells, dose-response (agonist)
T1 construct: full ORF (455 amino acids; GenBank MF377527) transiently expressed in HEK293/CNG cells
T1 sequence (A0A291L8I9 1-455): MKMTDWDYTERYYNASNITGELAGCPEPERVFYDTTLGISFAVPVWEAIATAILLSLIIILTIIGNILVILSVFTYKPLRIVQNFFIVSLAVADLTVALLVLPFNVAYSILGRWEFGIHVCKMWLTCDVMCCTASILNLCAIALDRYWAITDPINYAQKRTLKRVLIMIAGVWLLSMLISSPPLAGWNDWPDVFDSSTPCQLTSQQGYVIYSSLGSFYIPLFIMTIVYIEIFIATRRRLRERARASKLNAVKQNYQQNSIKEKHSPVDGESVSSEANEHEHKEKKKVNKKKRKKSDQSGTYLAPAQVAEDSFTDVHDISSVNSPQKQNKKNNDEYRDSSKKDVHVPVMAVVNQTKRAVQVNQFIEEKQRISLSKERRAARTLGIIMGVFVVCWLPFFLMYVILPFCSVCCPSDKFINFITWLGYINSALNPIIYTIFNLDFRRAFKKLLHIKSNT

RhoprOctβ2-R [2] = target: T2, RhoprOctβ2-R (Rhodnius prolixus, UniProt A0A291L8J3); test: aequorin bioluminescence Ca2+ assay in transfected HEK293/CNG cells, dose-response (full agonist)
T2 construct: full ORF (447 amino acids; GenBank MF377526) transiently expressed in HEK293/CNG cells
T2 sequence (A0A291L8J3 1-447): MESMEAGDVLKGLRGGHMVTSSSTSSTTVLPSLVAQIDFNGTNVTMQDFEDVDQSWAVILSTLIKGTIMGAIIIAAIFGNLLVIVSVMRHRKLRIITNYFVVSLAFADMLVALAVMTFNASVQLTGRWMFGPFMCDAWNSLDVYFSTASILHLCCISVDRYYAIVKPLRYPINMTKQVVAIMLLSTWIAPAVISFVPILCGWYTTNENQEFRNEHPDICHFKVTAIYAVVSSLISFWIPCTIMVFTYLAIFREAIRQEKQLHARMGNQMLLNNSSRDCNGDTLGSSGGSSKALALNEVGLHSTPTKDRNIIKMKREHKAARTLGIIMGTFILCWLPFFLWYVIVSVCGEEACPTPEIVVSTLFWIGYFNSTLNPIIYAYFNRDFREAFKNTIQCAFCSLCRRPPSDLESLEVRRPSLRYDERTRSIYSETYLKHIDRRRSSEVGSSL

RhoprOctβ2-R [3] = target: T2, RhoprOctβ2-R; test: aequorin bioluminescence Ca2+ assay in transfected HEK293/CNG cells, dose-response (partial agonist)
RhoprOctβ2-R [4] = target: T2, RhoprOctβ2-R; test: antagonism of octopamine-induced aequorin luminescence in HEK293/CNG cells, single dose […]
RhoprOctβ2-R [5] = target: T2, RhoprOctβ2-R; test: partial antagonism of octopamine-induced aequorin luminescence in HEK293/CNG cells, single dose […]
RhoprTyr1-R [6] = target: T1, RhoprTyr1-R; test: antagonism of tyramine-induced aequorin luminescence in HEK293/CNG cells, single dose […]

- EC50 (RhoprTyr1-R [1]): 6880 nM
- EC50 (RhoprOctβ2-R [2]): 367 nM
Structure (SMILES): NCC(O)c1ccc(O)cc1 (stereo not shown) [OA, octopamine]

- EC50 (RhoprTyr1-R [1]): 51.7 nM
- EC50 (RhoprOctβ2-R [3]): 3850 nM
Structure (SMILES): NCCc1ccc(O)cc1 [TA, tyramine]

Structure (SMILES): CN(C)Cc1c[nH]c2ccccc12 [gramine]
- antagonism of octopamine-induced aequorin luminescence in HEK293/CNG cells, sing (RhoprOctβ2-R [4]): Phentolamine and gramine significantly reduced octopamine-induced receptor activation

Structure (SMILES): CCN(CC)CCNC(=O)c1cc(Cl)c(N)cc1OC [metoclopramide]
- partial antagonism of octopamine-induced aequorin luminescence in HEK293/CNG cel (RhoprOctβ2-R [5]): RhoprOctβ2-R was antagonized by phentolamine > gramine > metoclopramide

Structure (SMILES): CC(COc1ccccc1)N(CCCl)Cc1ccccc1 (stereo not shown) [phenoxybenzamine]
- antagonism of tyramine-induced aequorin luminescence in HEK293/CNG cells, single (RhoprTyr1-R [6]): notably yohimbine and phenoxybenzamine, reduced the tyramine-induced activation of the RhoprTyr1-R
